Consider two compounds from patent US20120128654A1, “Allantoin Administration for the Treatment of Neurodegenerative Disease and Neurotrauma” (UNIVERSITY OF CINCINNATI, priority 2009, published 2012).

The nature of series [1]: Plasma purine levels following subcutaneous purine and KO pellet administration. It is filed as in vivo, Sprague Dawley rats. Particulars: rats, four days following pellet implantation; for plasma allantoin levels: matrix-driven s.c. pellets, vs control. The source says:
(§1) Continuous s.c. delivery of INO, KO and ALL was achieved by implanting matrix-driven pellets into the s.c. space. Animals were anesthetized with isofluorane and prepared for surgery using sterile procedures. A small incision was made posterior to the scapula and the pellet was placed in the subscapular space contralateral to the incision. This placement technique prevents migration of the pellet towards the incision, thereby reducing the incidents of rejection. Finally, the incision was closed using aseptic procedures. To determine the roles of UA and allantoin in inosine-mediated neuroprotection, animals were treated with the urate oxidase inhibitor KO. This approach has been widely used to prevent the enzymatic metabolism of UA to allantoin in other rodent models of disease.
For HPLC analysis of plasma inosine, hypoxanthine, xanthine and UA, an antioxidant solution was added to an equal volume of plasma and samples were centrifuged at 14,000 g for 20 minutes at 4° C. The supernatant was collected for HPLC analysis. Samples were separated on a Hypersil ODS column (Thermo-Fisher Scientific, Waltham, Mass.). Compounds were detected using a Photodiode Array Detector attached to a Waters 2695 Solvent Delivery System under the following conditions: the mobile phase consisted of 0.5% KH2PO4 at a pH of 4.6. Unknown samples were quantified against a 6-point standard curve with a minimum r^2 of 0.97. Quality control samples were interspersed with each run to ensure HPLC calibration. Data are expressed in μg/ml.
For plasma analysis of allantoin venous blood was obtained from the right ventricle (rat) and collected from repeated blood draws (African green monkey). Blood was immediately centrifuged at 10,500 rpms (this needs to be in G) for 5 minutes. Supernatant was then removed and analyzed for allantoin. Enzymatic detection of allantoin was performed as previously described with the exception of reaction volumes being adjusted to accommodate the use of a 96 well microtiter plate (Muratsubaki et al., Enzymatic assay of allantoin in serum using allantoinase and allantoate amidohydrolase, Anal. Biochem. 359:161-166 (2006)). […] Following a 15 minute incubation, absorbance was read on a spectrometer at 340 nm. […] Following a 10 minute incubation absorbance was once again measured at 340 nm. The final absorbance was subtracted from the absorbance following the addition of allantoinase. […]
To determine the impact of peripheral administration of purines on plasma purine levels, animals were divided into 5 groups INO (n=12), INO/KO (n=12), ALL (n=12), KO (n=12), and sham pellet implantation. […] Plasma ALL levels were determined enzymatically.

Series [2] in a line: Whole brain allantoin levels after subcutaneous allantoin pellets (blood brain barrier crossing). The conditions noted are these: non-lesioned rats, s.c. allantoin pellets, three days following pellet implantation, relative to control rats. Format: in vivo, Sprague Dawley rats.
From the text: as §1
To measure brain allantoin levels, whole brains were freeze dried, ground into a fine powder and homogenized in 0.8 ml of 2.5% trichloroacetic acid (TCA) per 100 mg. The homogenate was centrifuged at 18,000 rpm for 15 min. […] The remaining supernatant was then analyzed for allantoin.
To determine the ability of allantoin to cross the intact blood brain barrier (BBB), non-lesioned rats received either allantoin pellets or sham implantation. […] Whole brain levels of allantoin were determined enzymatically.

The subject of series [3] is cortex and hippocampus apoptosis. Particulars: twice daily i.p., neonatal MCA occlusion; cited from earlier work.

The structures appear in SMILES notation. “Also recorded” adds a separate entry of the source.

Turning to `NC(=O)NC1NC(=O)NC1=O` (stereo not shown) [allantoin], the plasma allantoin levels entry is “increase in plasma allantoin similar to what was seen in the inosine only group” in series [1] and “significantly increased” in series [1] (listed as Allantoin). Also, the “whole brain allantoin levels” value in series [2] is “approximately double; also recorded: significant increase”.

With `OC[C@H]1O[C@@H](n2cnc3c(O)ncnc32)[C@H](O)[C@@H]1O` [inosine], the plasma allantoin levels result in series [1] is listed as “significantly increased”. For the same compound, the “plasma levels of any other purines” value in series [1] (s.c. pellets) is “without affecting”. In series [3], the “Cytochrome C expression in the cortex and hippocampus” value is given as “decreased”; the “TUNEL staining in the cortex and hippocampus” value is “decreased”.
